This note sets out measurements from publication PMC8707451, “Separation and Identification of Antioxidants and Aldose Reductase Inhibitors in Lepechinia meyenii (Walp.) Epling” (Plants, 2021).

The inhibition is the change of the read-out against control, counted positive when it falls. One may read the IC50 as the concentration needed to halve the response being measured. A higher IC50 goes with weaker potency in that assay.

The nature of test [1]: DPPH radical scavenging assay (antioxidant). Particulars: for IC50: pure compounds. The procedure:
The antioxidant potential of the samples was evaluated using DPPH radical scavenging assay, as reported previously. In brief, 180 μL of freshly prepared DPPH solution (0.32 mM in MeOH) was mixed with 20 μL of the sample (in 50% MeOH, extracts and fractions, 50–400 µg/mL; components, 125–500 µM) in a 96-well plate and incubated for 20 min in the dark at 25 °C. Then, the absorbance (570 nm) of the reaction solution was measured using an EL800 microplate reader (Bio-Tek Instruments, Winooski, VT, USA). Quercetin was used as a positive control.
On the technique in general: Loss of DPPH colour is used to gauge radical scavenging.

The target of test [2] is rat lens AR (aldose reductase) (Rattus norvegicus, UniProt P07943). The test is described as follows: AR inhibition assay with rat lens AR homogenate.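 Note: supernatant of Sprague–Dawley rat lens extract as enzyme, DL-glyceraldehyde substrate, absorbance at 340 nm followed over 6 min, DMSO up to 0.5% v/v.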
Description: The eyes of 10-week Sprague–Dawley rats (250–280 g) were removed and kept at −70 °C before use. Then, the lenses were removed from the eyes using surgical scissors and tweezers, ground in a mortar (precooled at −70 °C) and extracted using 0.1 M phosphate-buffered saline (PBS) of pH 6.2 (approximately 0.5 mL of buffer per one rat lens). The extract solution was further centrifuged at 10,000× g for 30 min at 4 °C (Mega 17R, Hanil Science Industry, Gimpo, Korea), and the supernatant was collected and used as rat lens AR homogenate.
For AR inhibition assay, 100 µL of 0.1 M PBS (pH 7.0), 20 µL of AR homogenate, 20 µL of NADPH (cofactor, 2.4 mM in 0.1 M PBS of pH 8.0), 20 µL of the sample (in a mixture of water and DMSO; extracts and fractions 62.5–100 µg/mL, compounds 3.9–500 µM), and 20 µL of ammonium sulfate solution (4 M in 0.1 M PBS of pH 7.0) were pipetted into a 96-well plate. Then, 20 µL of the substrate (in 0.1 M PBS of pH 7.0; 25 mM of DL-glyceraldehyde dimmer) was added, and the absorbance (340 nm) was measured for 6 min using an Epoch microplate spectrophotometer (BioTek Instruments, Winooski, VT, USA). […] DMSO was used to prepare samples, but its ratio was kept within 0.5% (v/v) of the reaction system.
The half-maximal inhibitory concentrations (IC50 values) of samples against DPPH radicals and AR were calculated via linear regression and logarithmic analysis, respectively.
Setting [3] is: read-out: AR Inhibitory Activity Inhibition (%).

Molecules are shown by their SMILES. Marks after values point to notes of the source that are not given here.

On to `O=C(O)/C=C/c1ccc(O)c(O)c1` [Caffeic acid (1), Caffeic acid], for which the “DPPH Scavenging Activity Inhibition (%)” value in test [1] (compound concentration 12.5 µM) amounted to 8.60 ± 0.87%. Moreover, the “DPPH Scavenging Activity Inhibition (%)” value in test [1] (compound concentration 25 µM) was 20.21 ± 0.58%. In addition, the “DPPH Scavenging Activity Inhibition (%)” value in test [1] (compound concentration 50 µM) turned out to be 43.33 ± 0.69%. Besides, in test [2] (setting [3]), the inhibition at 12.5 µM was 12.3 ± 2.09%, the inhibition at 25 µM was 17.8 ± 0.41% and the inhibition at 50 µM was 20.3 ± 0.62%.

For `COc1ccc(-c2cc(=O)c3c(O)cc(O)cc3o2)cc1O` [Diosmetin (6), Diosmetin], in test [1] (compound concentration 12.5 µM), the “DPPH Scavenging Activity Inhibition (%)” value turned out to be 0.14 ± 0.34%. Moreover, the “DPPH Scavenging Activity Inhibition (%)” value in test [1] (compound concentration 25 µM) stood at 0.46 ± 0.35%. Also, the “DPPH Scavenging Activity Inhibition (%)” value in test [1] (compound concentration 50 µM) was found to be 3.18 ± 0.42%. Also, in test [2] (setting [3]), the inhibition at 12.5 µM turned out to be 10.5 ± 3.79%, the inhibition at 25 µM is 22 ± 1.25% and the inhibition at 50 µM was determined as 34 ± 1.03%.

`COc1ccc(-c2cc(=O)c3c(O)cc(O[C@@H]4O[C@H](CO[C@@H]5O[C@@H](C)[C@H](O)[C@@H](O)[C@H]5O)[C@@H](O)[C@H](O)[C@H]4O)cc3o2)cc1O` [Diosmin (4), Diosmin]: the results for the “DPPH Scavenging Activity Inhibition (%)” value in test [1] (compound concentration 12.5 µM), in test [1] (compound concentration 25 µM) and in test [1] (compound concentration 50 µM) were 0.31 ± 0.69%, 0.61 ± 1.08% and 2.61 ± 0.67%, respectively. For the same compound, the inhibition at 12.5 µM in test [2] (setting [3]) amounted to 8.91 ± 0.62%. Besides, in test [2] (setting [3]), the inhibition at 25 µM is 11.2 ± 0.82%. Also, in test [2] (setting [3]), the inhibition at 50 µM stood at 12.3 ± 0.62%.

On to `CCOC(=O)[C@@H](Cc1ccc(O)c(O)c1)OC(=O)/C=C/c1ccc(O)c(O)c1` [Ethyl rosmarinate (S1), Ethyl rosmarinate], for which the “DPPH Scavenging Activity Inhibition (%)” value in test [1] (compound concentration 12.5 µM) was determined as 22.02 ± 0.35%; in test [1] (compound concentration 25 µM), 38.38 ± 0.53%; in test [1] (compound concentration 50 µM), 83.09 ± 0.21%. Further, the figures for the half-maximal inhibitory concentration (IC50) in test [1] (linear regression) and in test [2] were 30.54 ± 0.13 µM and 1.02 ± 0.07 µM, respectively. In test [2] (setting [3]), the inhibition at 0.39 µM was 27.4 ± 2.66%. Besides, the inhibition at 0.78 µM in test [2] (setting [3]) turned out to be 43.2 ± 0.62%. Besides, the inhibition at 1.56 µM in test [2] (setting [3]) worked out at 60.5 ± 2.05%.

For the compound `COc1ccc([C@@H]2CC(=O)c3c(O)cc(O[C@@H]4O[C@H](CO[C@@H]5O[C@@H](C)[C@H](O)[C@@H](O)[C@H]5O)[C@@H](O)[C@H](O)[C@H]4O)cc3O2)cc1O` [Hesperidin (2), Hesperidin], the “DPPH Scavenging Activity Inhibition (%)” value in test [1] (compound concentration 12.5 µM) turned out to be 1.20 ± 1.18%; in test [1] (compound concentration 25 µM), 2.57 ± 0.77%; in test [1] (compound concentration 50 µM), 3.37 ± 1.32%. The inhibition at 12.5 µM in test [2] (setting [3]) stood at 1.78 ± 0.33%. For the same compound, the inhibition at 25 µM in test [2] (setting [3]) is 10 ± 1.22%. Also, in test [2] (setting [3]), the inhibition at 50 µM stood at 11.6 ± 0.41%.

For `COC(=O)[C@@H](Cc1ccc(O)c(O)c1)OC(=O)/C=C/c1ccc(O)c(O)c1` [Methyl rosmarinate (5), Methyl rosmarinate], the “DPPH Scavenging Activity Inhibition (%)” value in test [1] (compound concentration 12.5 µM) was found to be 18.68 ± 0.63%; in test [1] (compound concentration 25 µM) it was 37.59 ± 0.60%; in test [1] (compound concentration 50 µM), 76.21 ± 1.04%. In addition, the half-maximal inhibitory concentration (IC50) in test [1] (linear regression) is 33.01 ± 0.27 µM; in test [2], 1.17 ± 0.08 µM. The inhibition at 0.39 µM in test [2] (setting [3]) was determined as 22.1 ± 0.85%. The inhibition at 0.78 µM in test [2] (setting [3]) was determined as 40.9 ± 3.47%. Moreover, the inhibition at 1.56 µM in test [2] (setting [3]) was 56.7 ± 0.85%.

On to `CCCOC(=O)[C@@H](Cc1ccc(O)c(O)c1)OC(=O)/C=C/c1ccc(O)c(O)c1` [Propyl rosmarinate (S2), Propyl rosmarinate], for which the “DPPH Scavenging Activity Inhibition (%)” value in test [1] (compound concentration 12.5 µM) stood at 17.68 ± 0.83%; in test [1] (compound concentration 25 µM) it was 37.15 ± 0.29%; in test [1] (compound concentration 50 µM) it was 77.82 ± 0.46%. In addition, the IC50 in test [1] (linear regression) is 32.7 ± 0.08 µM; in test [2], 1.29 ± 0.01 µM. In addition, the inhibition at 0.39 µM in test [2] (setting [3]) came out at 12.3 ± 1.84%. Further, the inhibition at 0.78 µM in test [2] (setting [3]) worked out at 37.9 ± 1.25%. Moreover, in test [2] (setting [3]), the inhibition at 1.56 µM is 53.67 ± 0.41%.

For the compound `O=c1c(O)c(-c2ccc(O)c(O)c2)oc2cc(O)cc(O)c12` [Quercetin, quercetin, reference compound], the “DPPH Scavenging Activity Inhibition (%)” value in test [1] (compound concentration 12.5 µM) is listed as 22.31 ± 0.92%. In addition, the “DPPH Scavenging Activity Inhibition (%)” value in test [1] (compound concentration 25 µM) worked out at 40.39 ± 0.82%. The “DPPH Scavenging Activity Inhibition (%)” value in test [1] (compound concentration 50 µM) was 72.32 ± 0.42%. Moreover, the “DPPH Scavenging Activity IC50” value in test [1] (extracts, fractions and quercetin, linear regression) is 10.46 ± 0.34 ^e µg/mL. This compound also gave a half-inhibitory concentration (IC50) in test [1] (linear regression) of 33.19 ± 0.31 µM. For the same compound, in test [1] (sample concentration 5 µg/mL), the “DPPH Scavenging Activity Inhibition (%)” value is 28.65 ± 0.38%. Moreover, the “DPPH Scavenging Activity Inhibition (%)” value in test [1] (sample concentration 10 µg/mL) was 54.43 ± 2.07%. Further, the “DPPH Scavenging Activity Inhibition (%)” value in test [1] (sample concentration 20 µg/mL) came out at 84.78 ± 2.36%. Also, in test [2] (setting [3]), the inhibition at 2.5 µg/mL worked out at 38.7 ± 0.91%, the inhibition at 5 µg/mL was 55.3 ± 1.58%, the inhibition at 6.25 µM came to 31.5 ± 1.7% and the inhibition at 10 µg/mL came out at 64 ± 0.88%. For the same compound, in test [2] (setting [3]), the inhibition at 12.5 µM was 45 ± 1.65% and the inhibition at 25 µM turned out to be 65.1 ± 1.47%.

With `O=C(/C=C/c1ccc(O)c(O)c1)O[C@H](Cc1ccc(O)c(O)c1)C(=O)O` [Rosmarinic acid (3), Rosmarinic acid], the “DPPH Scavenging Activity Inhibition (%)” value worked out at 19.05 ± 1.33% in test [1] (compound concentration 12.5 µM), 34.35 ± 0.69% in test [1] (compound concentration 25 µM) and 67.04 ± 0.64% in test [1] (compound concentration 50 µM). Moreover, the half-inhibitory concentration (IC50) in test [1] (linear regression) stood at 36.91 ± 0.35 µM; in test [2] it was 4.08 ± 0.11 µM. The inhibition at 3.125 µM in test [2] (setting [3]) worked out at 42.6 ± 1.63%. Also, the inhibition at 6.25 µM in test [2] (setting [3]) is 62.9 ± 2.1%. Besides, the inhibition at 12.5 µM in test [2] (setting [3]) is 76 ± 1.03%.

As for `CCCCOC(=O)[C@@H](Cc1ccc(O)c(O)c1)OC(=O)/C=C/c1ccc(O)c(O)c1` [n-Butyl rosmarinate (7), n-Butyl rosmarinate], the figures for the “DPPH Scavenging Activity Inhibition (%)” value in test [1] (compound concentration 12.5 µM), in test [1] (compound concentration 25 µM) and in test [1] (compound concentration 50 µM) were 19.98 ± 0.29%, 40.73 ± 1.21% and 84.85 ± 0.81%, respectively. The half-inhibitory concentration (IC50) in test [1] (linear regression) worked out at 30.02 ± 0.1 µM; in test [2], 1.54 ± 0.04 µM. In addition, in test [2] (setting [3]), the inhibition at 0.39 µM was 13.1 ± 0.47%. The inhibition at 0.78 µM in test [2] (setting [3]) came to 28.6 ± 0.47%. The inhibition at 1.56 µM in test [2] (setting [3]) amounted to 51.4 ± 0.94%.
